Measured values as given in US12215093B2, “Bicyclic carboxamides and methods of use thereof” (Tempest Therapeutics, Inc., priority 2018, dated 2025).
pIC50: −log10 of the molar value. Read-outs that look alike come from different tables or passages of the source.

How the values were obtained:
EP2 [1] = molecular target: T1, EP2 (Homo sapiens, UniProt P43116); assay: cell-based;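 further: functional calcium flux assay in stably transfected HEK293 cells expressing EP2 coupled via a promiscuous G protein, clytin luminescence read as area under the curve, 30 min compound preincubation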
T1 sequence (P43116 whole entry): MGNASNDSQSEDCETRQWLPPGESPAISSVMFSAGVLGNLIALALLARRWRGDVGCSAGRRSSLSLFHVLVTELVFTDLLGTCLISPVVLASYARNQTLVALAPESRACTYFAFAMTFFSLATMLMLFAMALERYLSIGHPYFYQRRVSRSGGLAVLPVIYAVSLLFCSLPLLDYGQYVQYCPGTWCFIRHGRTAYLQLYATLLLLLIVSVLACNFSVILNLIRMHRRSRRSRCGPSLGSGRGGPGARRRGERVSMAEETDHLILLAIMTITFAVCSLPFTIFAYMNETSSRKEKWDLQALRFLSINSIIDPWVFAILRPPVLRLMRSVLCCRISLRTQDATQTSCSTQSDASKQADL
Protocol: (§1) Each receptor subtype has an additional promiscuous G protein added in order to couple the aforementioned receptor to the calcium signaling pathway. The parental cell line used also expresses a novel variant of clytin, a calcium-activated photo-protein, to enable sensitive luminescent detection. Briefly, cells were plated at 50,000 cells-per-well in black, clear bottom 96-well plates. The plated cells were allowed to sit at room temperature for 30 min prior to transferring to a humidified, 37° C., 5% CO2 incubator for 18 to 24 h. Assay buffer (HBSS with 20 mM HEPES) and loading buffer (assay buffer plus 10 μM coelenterazine) were prepared on the day of the assay. Assays were performed by aspirating media from the assay plate and washing once with assay buffer, then replacing with loading buffer and allowing the cells to incubate for 1.5 h at room temperature. Compounds were prepared in assay buffer at a 3× final concentration in non-binding plates. Compounds were added to the cell plates and incubated for 30 min at room temperature. The prostanoid receptor ligand PGE2 was prepared at a 4× dilution ratio for a final concentration of 10 nM. Plates were run on a Flexstation™ using a 100 ms integration luminescence protocol for a total of 60 sec with ligand addition at 15 sec. Data were obtained from relative light units as measured by area under the curve.

EP4 = molecular target: T2, EP4 (Homo sapiens, UniProt P35408); assay: Functional calcium flux assay, EP4; format: cell-based; conditions: stably transfected HEK293 cells; PGE2 10 nM; read-out: EP4 Ca2+-flux assay IC50
T2 construct: host or cells: stably transfected HEK293 cells co-expressing a promiscuous G protein and a clytin variant
T2 sequence (P35408 whole entry): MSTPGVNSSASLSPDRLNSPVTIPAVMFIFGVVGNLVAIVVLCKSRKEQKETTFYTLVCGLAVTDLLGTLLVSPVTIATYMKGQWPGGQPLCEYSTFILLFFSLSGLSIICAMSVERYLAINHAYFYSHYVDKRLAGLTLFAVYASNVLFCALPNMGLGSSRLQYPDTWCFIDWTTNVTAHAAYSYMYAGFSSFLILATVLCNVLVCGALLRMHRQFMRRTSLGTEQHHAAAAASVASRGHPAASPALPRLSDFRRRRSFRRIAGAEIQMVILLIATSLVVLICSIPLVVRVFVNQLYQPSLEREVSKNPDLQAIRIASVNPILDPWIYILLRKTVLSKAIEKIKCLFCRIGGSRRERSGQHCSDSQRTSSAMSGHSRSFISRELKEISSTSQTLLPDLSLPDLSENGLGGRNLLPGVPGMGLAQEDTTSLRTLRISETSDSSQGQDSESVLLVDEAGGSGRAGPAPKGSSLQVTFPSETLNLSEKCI

EP2 [2] = molecular target: T1, EP2
Protocol: as §1

Row | SMILES | pIC50 (EP2 [1]) | pIC50 (EP4) | pIC50 (EP2 [2])
1 | COc1ncc(-c2ccc(Cn3ccc4c(F)ccc(C(=O)NC5CC6(C5)CC(C(=O)O)C6)c43)cc2)cc1Cl (racemic) [Example 17, (racemic)-6-(1-(4-(5-Chloro-6-methoxypyridin-3-yl)benzyl)-4-fluoro-1H-indole-7-carboxamido)spiro[3.3]heptane-2-carboxylic acid] | > 7.60 | 8.15 | 
2 | CC(c1ccc(-c2ccccc2)cc1)n1ccc2c(F)ccc(C(=O)NC3CC4(C3)CC(C(=O)O)C4)c21 (racemic) [Example 116, (S)-6-(1-(racemic)-1-([1,1′-biphenyl]-4-yl)-ethyl)-4-fluoro-1H-indole-7-carboxamido)spiro[3.3]heptane-2-carboxylic acid] |  | 8.55 | > 7.60
3 | CCOc1cccc(-c2ccc(C(C)n3ncc4c(Cl)ccc(C(=O)NC5CC6(C5)CC(C(=O)O)C6)c43)cc2)n1 (racemic) [Example 134, (Sa)-6-(4-chloro-1-((racemic)-1-(4-(6-ethoxypyridin-2-yl)phenyl)-ethyl)-1H-indazole-7-carboxamido)spiro[3.3]heptane-2-carboxylic acid] |  | 8.89 | > 7.60
4 | COc1cc(C#N)cc(-c2ccc(Cn3ccc4c(F)ccc(C(=O)NC5CC6(C5)CC(C(=O)O)C6)c43)cc2)n1 (stereo not shown) [Example 59, (Sa)-6-(1-(4-(4-cyano-6-methoxypyridin-2-yl)benzyl)-4-fluoro-1H-indole-7-carboxamido)spiro[3.3]heptane-2-carboxylic acid] |  | 8.60 | 7.29
5 | COc1cccc(-c2ccc(C(C)n3ccc4c(F)ccc(C(=O)NC5CC6(C5)CC(C(=O)O)C6)c43)cc2)c1 (racemic) [Example 117, (Sa)-6-(4-fluoro-1-((racemic)-1-(3′-methoxy-[1,1′-biphenyl]-4-yl)-ethyl)-1H-indole-7-carboxamido)spiro[3.3]heptane-2-carboxylic acid] |  | 7.85 | 7.06
6 | O=C(NC1CC2(C1)CC(C(=O)O)C2)c1ccc(Cl)c2cnn(Cc3ccc(OC(F)(F)F)cc3)c12 (stereo not shown) [Example 95, (Sa)-6-(4-chloro-1-(4-(trifluoromethoxy)benzyl)-1H-indazole-7-carboxamido)spiro[3.3]heptane-2-carboxylic acid] |  | 8.05 | 7.08

Molecules with a higher pIC50 (EP4), results first:

Row | pIC50 (EP2 [1]) | pIC50 (EP4) | pIC50 (EP2 [2]) | SMILES
7 | > 7.60 | > 9.00 |  | COc1ccc(-c2ccc(Cn3ccc4c(F)ccc(C(=O)NC5CC6(C5)CC(C(=O)O)C6)c43)cc2)cc1Cl (stereo not shown) [Example 25, (Sa)-6-(1-((3′-Chloro-4′-methoxy-[1,1′-biphenyl]-4-yl)methyl)-4-fluoro-1H-indole-7-carboxamido)spiro[3.3]heptane-2-carboxylic acid]
8 | 7.19 | > 9.00 |  | CCOc1cccc(-c2ccc(C(C)n3ncc4cccc(C(=O)NC5CC6(C5)CC(C(=O)O)C6)c43)cc2)n1 (racemic) [Example 133, (Sa)-6-(1-((racemic)-1-(4-(6-Ethoxypyridin-2-yl)phenyl)-ethyl)-1H-indazole-7-carboxamido)spiro[3.3]heptane-2-carboxylic acid]
9 | > 7.60 | > 9.00 |  | COc1ccc2cc(-c3ccc(Cn4ccc5c(F)ccc(C(=O)NC6CC7(CC(CC(=O)O)C7)C6)c54)cc3)ccc2n1 (single isomer, unassigned) [Example 140, (Ra)-2-(6-(4-Fluoro-1-(4-(2-methoxyquinolin-6-yl)benzyl)-1H-indole-7-carboxamido)spiro[3.3]heptan-2-yl)acetic acid]
10 |  | > 9.00 | > 7.60 | O=C(NC1CC2(C1)CC(C(=O)O)C2)c1ccc(Cl)c2cnn(Cc3ccc4ccccc4c3)c12 (stereo not shown) [Example 96, (Sa)-6-(4-chloro-1-(naphthalen-2-ylmethyl)-1H-indazole-7-carboxamido)spiro[3.3]heptane-2-carboxylic acid]
11 |  | > 9.00 | 7.17 | O=C(NC1CC2(C1)CC(C(=O)O)C2)c1ccc(F)c2ccn(Cc3ccc(-c4cccc(OC(F)F)c4)cc3)c12 (stereo not shown) [Example 50, (Sa)-6-(1-((3’-(difluoromethoxy)-[1,1′-biphenyl]-4-yl)methyl)-4-f1uoro-1H-indole-7-carboxamido)spiro[3.3]heptane-2-carboxylic acid]
